Laboratory results: patent US10376545B2, “Methods for producing hormone secreting cells in a subject” (ViaCyte, Inc., priority 2013, dated 2019)

Key:
[1] = system: INS, GCG, SST, GHRL, PDX1, NKX6.1, NGN3, ID1 expression; assay: Nanostring mRNA analysis of endocrine cell cultures; format: cell-based, human; details: for pancreatic-lineage gene expression: agent at days 30-35 during stage 7, analyzed at d35
[2] = system: re-aggregated endocrine cell aggregates; assay: Cell-to-cell association of re-aggregated endocrine cell aggregates (stereomicroscope images); format: cell-based, human; details: 10 μM Y-27632, Matrigel 0.05% v/v
Description: In Example 11 above, the cell aggregates were dissociated and re-aggregated or re-associated between stage 6 and 7. Dissociation was performed using Accutase on or around day 20 and re-aggregated in rotation culture, substantially as described in Schulz et al. supra. The re-aggregation removes certain PEC sub-populations including any remaining non-endocrine (CHGA−) sub-populations as well as other non-endocrine cells as described in more detail in Kelly et al. (2011), supra. Endocrine cells have affinity for each other, however, this interaction in vitro is relatively weak, even the re-aggregated cells at stages 6/7 were only loosely associated. So, studies were performed to test various factors and agents for their ability to increase the cell-to-cell interactions within the endocrine cell aggregates.
The combination of Y-27632 and Matrigel increased at least for example the cell-to-cell interaction of the cell aggregates over either component alone.
A differentiated culture produced substantially as described in Example 12, at day 20 was dissociated with Accutase and re-aggregated in db with 5% FBS (lower concentrations of FBS, i.e. 2% or 1% are also effective) and DNAse. Y-27632 was not included in the re-aggregation medium as doing so would result in incorporation of non-endocrine (CHGA−) sub-population as well as other non-endocrine cells into the newly formed aggregates. […]

[3] = system: hES-derived cell aggregates; assay: Cell aggregate size / cell mass in suspension culture (imaging); format: cell-based, human; details: 3 days of 50 ng/mL at stage 3 as compared to 2 days
Description: Preliminary studies were performed using Heregulin and FGF. In certain of these studies, Rho-kinase inhibitor, Y-27632, was included. […] An increase in cell aggregate size is advantageous in that it results in higher cell mass for later implantation and testing for function in animals.
Various growth factors were explored for their ability to suppress genes such as NGN3 during stages 3 and 4. One candidate growth factor was Activin which has diverse functions in stem cell expansion and differentiation. For example, at low levels (e.g. 10 ng/mL), Activin helps maintain pluripotent stem cell pluripotency and cell proliferation. At higher levels (e.g. 100 ng/mL) Activin acts as a differentiation growth factor responsible for definitive endoderm production at stage 1 (see e.g., Table 8). To test its effect on repressing cells committed to the endocrine lineage (CHGA+) during PEC formation, Applicant first tested Activin at a mid-level concentration of about 50 ng/mL with standard adherent differentiation.
So, Activin levels less than about 25 ng/mL are acceptable for maintaining cell mass and yield. Applicant then performed flow cytometry analysis on these cell cultures to determine whether Activin at low levels during stages 3 and 4 had any effect on cell aggregate composition; see Table 14. […]

[4] = system: PEC derived from hESC; assay: Flow cytometry analysis of PEC derived from hESC (CHGA, NKX6.1, PDX1 sub-populations); format: cell-based, human
Description: So, Activin levels less than about 25 ng/mL are acceptable for maintaining cell mass and yield. Applicant then performed flow cytometry analysis on these cell cultures to determine whether Activin at low levels during stages 3 and 4 had any effect on cell aggregate composition; see Table 14. […] Advantageously, the PDX1 only and Triple Negative sub-populations are reduced as compared to the control, particularly when Activin is used in stages 3 and 4.
To determine the cell composition of the PEC population with the combination of Activin, Heregulin and Wnt during stage 3, flow cytometry was performed after stage 4 and the PEC cellular composition is shown in Table 14. […] Data from flow cytometry supports and is consistent with data from QPCR that the combination of the three factors (AHW) in general delayed or suppressed differentiation of cells committed to the endocrine lineage (CHGA+) in PEC without affecting the production of the non-endocrine (CHGA−) sub-population. The delayed expression of these genes in vitro is consistent with their on-set (or delay) in in vivo mammalian pancreatic development, whereby NGN3 expression in endocrine differentiation occurs after the on-set of PDX1 and NKX6.1 expression in the non-endocrine (CHGA−) sub-population. Additionally, there was no compromise in the PEC mass and yield. […]
Undifferentiated human ESC were expanded and differentiated substantially as described above in Table 17 Protocol #1 for stages 1-4 and in Schulz et al. (2012) supra, except that during the three (3) days of stage 3, 4 different conditions were compared: (i) 0 noggin (“no noggin”) for all 3 days; (ii) 1 day of Noggin at 50 ng/mL and 2 days with no additional Noggin; (iii) 2 days of Noggin at 50 ng/mL and 1 day with no additional noggin; and (iv) 3 days of Noggin at 50 ng/mL. After stage 3, each of these conditions (i) through (iv) then received the standard stage 4 differentiation media cocktail according to Table 8 and Table 17, but without additional Noggin. […] Moreover, with each additional day of noggin treatment, fewer non-endocrine multipotent pancreatic progenitor sub-populations were produced (compare 90.6% with no noggin to 64.6% with 3 days of noggin treatment).

[5] = system: SOX17 expression; details: 1 μg/mL of insulin; cited from earlier work
[6] = 50 ng/mL of FGF2 for 2 days at stage 3
[7] = 50 ng/mL of FGF2 for 3 days at stage 3

Molecule: CC(C)(C(=O)NCC(F)(F)C(F)(F)F)C(=O)N[C@@H]1C(=O)Nc2ccccc2-c2ccccc21 [RO4929097, reference compound]
- NGN3 expression ([1]; 1 μM for 2 days at stage 5, day 15 versus day 13): strongly induced NGN3 expression

Molecule: C/C(=C\c1ccc(C(=O)O)cc1)c1ccc2c(c1)C(C)(C)CCC2(C)C [TTNPB, 4-[(E)-2-(5,6,7,8-Tetrahydro-5,5,8,8-tetramethyl-2-naphthalenyl)-1-propenyl]benzoic acid, reference compound]
- PDX1 expression ([1]; 0.5 nM alone at stages 6 & 7 or stage 7 alone): does not appear to increase PDX1 expression

Molecule: C[C@@H](N)[C@H]1CC[C@H](C(=O)Nc2ccncc2)CC1 [Y-27632]
- cell associations of re-aggregated endocrine cell aggregates [2]: capable of promoting tighter cell associations

Molecule: NC(=O)c1cccnc1 [nicotinamide, reference compound]
- increase in the INS/GCG expression ratio ([1]; stage 6 culture conditions, analyzed at day 21): 3 fold

Molecule: FGF1: acidic FGF
- pancreatic-lineage gene expression [1]: upregulated GCG and SST

Molecule: FGF2: Fibroblast growth factor 2
- cell aggregate size [3]: An increase in cell aggregate size was also observed
- CHGA+ (Endocrine) [4, 6]: 11.9%
- CHGA− NKX6.1− PDX1− (Triple Negative/Residual Cells) [4, 6]: 9.15%
- CHGA−, NKX6.1+, PDX1+ (Non-endocrine) [4, 6]: 79%
- CHGA+ (Endocrine) [4, 7]: 0.33%
- CHGA− NKX6.1− PDX1− (Triple Negative/Residual Cells) [4, 7]: 22.7%
- CHGA−, NKX6.1+, PDX1+ (Non-endocrine) [4, 7]: 76.9%
- pancreatic-lineage gene expression [1]: significant increase in SST expression

Molecule: IGF2: Insulin-like growth factor II
- INS expression ([1]; 25 or 100 ng/mL from day 17 for about 3 days, stage 6, data not shown): more capable of inducing INS expression than IGF1

Molecule: insulin
- SOX17 expression is reduced [5]: 4 fold
